This note sets out measurements from patent US20180153830A1, “SELECTIVE INHIBITORS OF UNDIFFERENTIATED CELLS” (Yissum Research Development Company of the Hebrew …, priority 2012, published 2018).

Assay [1] deals with undifferentiated CSES2-SO2/3 embryonic stem cells. Briefly: Fluorescence microscopy imaging of undifferentiated CSES2-SO2/3 cells. It is filed as cell-based, human. The conditions noted are these: for effect on undifferentiated cells: 24 hours of exposure. On the procedure:
High content imaging of CSES2-SO2/3 fluorescent cells (mCherry+ or EGFP+) was performed in black clear-bottom 384-well assay plates (Falcon BD), using the Opera high-content screen imaging platform (PerkinElmer). Otherwise, light and fluorescence imaging of all cells was performed in 24-well, 6-well or 10 cm CELLSTAR® plates (Greiner Bio-One), using an Olympus CellR imaging station. Light imaging of developing mouse embryos was performed in 35 mm culture dishes (Falcon BD), using an Olympus IX70 microscope.
CSES2-SO2/3 is a genetically-labeled cell line that expresses mCherry under the promoter of the pluripotency hallmark gene OCT-4, and GFP under the promoter of the early endodermal marker SOX17. Therefore, these cells are red while undifferentiated, and become green upon their differentiation into the endodermal lineage [Kopper & Benvenisty, Stem Cell Research 8:335-345 (2011)]. Green early endodermal progenitor cells were generated from the red undifferentiated cells, using an 8-day differentiation protocol as described by Duan et al. [Stem Cells 28:674-686 (2010)].
In order to further verify the selectivity of the PluriSIns, and rule out any potential assay-related interference, undifferentiated and differentiated CSES2-SO2/3 cells were subjected to microscopy imaging after 24 hours of exposure to PluriSIns.

Assay [2] concerns protein synthesis in H9 embryonic stem cells. Briefly: 35S-Met metabolic labeling of protein synthesis, ES cells. The format is cell-based, human. The conditions noted are these: 12 hours; 20 μM PluriSIn #1 or 100 nm A939572. On the procedure: H9 embryonic stem cells were seeded in Matrigel™ pre-coated 6-well tissue culture plates at a density of 2×10^5 cells/well, and cultured using mTeSR1 defined medium. BJ fibroblasts were seeded in 6-well tissue culture plate at the same density, and cultured with DMEM supplemented with 10% FBS, penicillin (50 U/ml) and streptomycin (50 μg/ml). Cells were treated for 12 hours with either 20 μM PluriSIn #1 (isonicotinic acid N′-phenylhydrazide) or with 0.2% DMSO. Cells were then washed with PBS, and replenished with methionine-deficient medium for 1 hour. Metabolic labeling of the cells was then performed for 1 hour with 10 μCi of […] methionine in 1 ml/well, in the presence of 20 μM PluriSIn #1 or 0.2% DMSO. Cells were washed with PBS containing 10 mM methionine, and were then lysed in 0.4 ml of 30% ice-cold trichloroacetic acid (TCA) containing 10 mM methionine for 15 minutes. […] Total protein concentration was determined using a Bradford Protein Assay (Sigma-Aldrich), and the radioactivity measurements were normalized accordingly. […]
The similarity between PSIs and PluriSIn #1 and #6 is consistent with the fact that UPR can lead to translational attenuation. In order to confirm this link, the effect of PluriSIn #1 treatment on protein synthesis was determined. […]

In another assay the test system is hPSC-derived teratomas. Briefly: Teratoma formation from pre-treated hPSCs in NOD-SCID IL2Rγ−/− mice. The conditions noted are these: for teratoma formation at the side injected with pre-treated cells: cells pre-treated before injection into mice; for Incidence of teratoma formation, undifferentiated cells only: hPSCs pre-treated 48 h with 20 μM. It is filed as in vivo, mouse. As to the method:
Human embryonic stem cell and induced pluripotent stem cell lines were cultured without feeder cells in CELLSTAR® 6-well tissue culture plates (Greiner Bio-One) pre-coated with Matrigel™, using mTeSR1 defined medium. Cells were treated for 24 hours with either 20 μM PluriSIn #1 (isonicotinic acid N′-phenylhydrazide) in 0.2% DMSO or with 0.2% DMSO, followed by medium replacement and a second treatment for another 24 hours. 48 hours after initial exposure to the tested compound, cells were harvested with trypsin-EDTA and resuspended in a 1:1 mTeSR1:Matrigel™ mixture to a total volume of 200 μl. Cells were then injected subcutaneously to the back of NOD-SCID IL2Rγ−/− mice (Jackson Laboratory). Six weeks after injection mice were sacrificed, the formation of tumors was examined, and the resulting teratomas were photographed, dissected and cryopreserved in O.C.T. compound (Sakura Finetek, Torrance, Calif.).
Alternatively, human embryonic stem cells and induced pluripotent stem cells were spontaneously differentiated in culture for a period of 10 days, by growing them on gelatin-coated culture plates with 85% knockout DMEM medium supplemented with 15% knockout serum replacement, 1 mM glutamine, 0.1 mM β-mercaptoethanol, 1% nonessential amino acids, penicillin (50 U/ml) and streptomycin (50 μg/ml), without basic fibroblast growth factor (bFGF). Retinoic acid was added to the medium at a final concentration of 1 μM. 10 days later, the differentiated cells were harvested and plated at a 1:1 ratio with their undifferentiated parental cells in CELLSTAR® 6-well tissue culture plates (Greiner Bio-One) pre-coated with Matrigel™, with mTeSR1 defined medium. Cells were treated for 24 hours with either 20 μM PluriSIn #1 or 0.2% DMSO, followed by medium replacement and a second treatment for another 24 hours. 48 hours after initial exposure to the compound, cells were harvested with trypsin-EDTA and counted using a Countess automated cell counter (Invitrogen). 1 million viable cells from each condition were resuspended in a 1:1 mTeSR1:Matrigel™ mixture to a total volume of 200 μl. Cells were then injected subcutaneously to the back of NOD-SCID IL2Rγ−/− mice. Each mouse was injected with PluriSIn #1-treated cells into one side of its body and control-treated cells into the other side. Six weeks after injection mice were sacrificed, the formation of tumors was examined, and the resulting teratomas were photographed, dissected and cryopreserved in O.C.T. compound.
To evaluate in vivo tumorigenicity, hPSCs were cultured under the abovementioned conditions in the presence or absence of PluriSIn #1, and the cultures were then injected subcutaneously into immuno-compromised NOD-SCID IL2Rγ−/− mice, which have been previously reported to be especially susceptible to human-derived tumors [Quintana et al., Nature 456:593-598 (2008)]. Mice were sacrificed after 4-6 weeks, and teratoma formation was then assessed.
Similarly, CSES2-SO2 and BJ-iPS28 cell lines were injected into immune-compromised mice (2 mice for each cell line), with control cells and treated cells being injected into the two body sides of the same animal.
The effect of PluriSIns was on teratoma formation was then evaluated in a model designed to simulate a clinical setting. Human ES and iPS cells were spontaneously differentiated in culture for a period of 10 days, and the differentiated cells were then harvested and plated together with undifferentiated cells, in a 1:1 mixture of undifferentiated and differentiated cells, as described in the Materials and Methods section. Following a 48 hour exposure to PluriSIn #1, cells were harvested and injected subcutaneously into NOD-SCID IL2Rγ−/− mice, with each mouse being injected with PluriSin #1-treated cells into one side of its body and with control cells into the other side. The same total number of cells was injected into both sides.

For `Cc1ccc(NNC(=O)C(O)(c2ccccc2)c2cccs2)cc1` (centres unmarked) [PluriSIn #6, 2-hydroxy-2-(thiophen-2-yl)-2-phenylacetic acid 4-methyl-N′-phenylhydrazide], in assay [1], the “effect on undifferentiated cells” value is given as “eliminated the red undifferentiated cells”.
Take `O=C(NNc1ccccc1)c1ccncc1` [PluriSIn #1, isonicotinic acid N′-phenylhydrazide]: the “effect on undifferentiated cells” value in assay [1] is reported as “eliminated undifferentiated cells”. Further, in assay [1] (mixture of CSES2-SO2/3 ES and derived differentiated cells), the “effect on undifferentiated cells in a mixture of differentiated and undifferentiated cells” value was “also eliminated undifferentiated cells”. The “decrease in protein synthesis, ES cells” value in assay [2] is “approximately 30%”. Moreover, the “Incidence of teratoma formation, 1:1 mixture of undifferentiated and differentiated cells” value in the assay with hPSC-derived teratomas (cells pre-treated 48 h with 20 μM, injected subcutaneously) is reported as 0/4. For the same molecule, the “teratoma formation at the side injected with pre-treated cells” value in the assay on hPSC-derived teratomas is given as “no teratoma is visible”. The “Incidence of teratoma formation, undifferentiated cells only” value with hPSC-derived teratomas (injected subcutaneously) is given as 11/11; with hPSC-derived teratomas (injected subcutaneously, listed as PluriSn #1), 0/11. Moreover, in the assay with hPSC-derived teratomas (treated H9 ES cells injected), the “mice that developed teratomas, H9 ES cells” value is reported as 0/3.
Turning to `CNC(=O)c1cccc(NC(=O)N2CCC(Oc3ccccc3Cl)CC2)c1` [A939572, 4-(2-chlorophenoxy)-N-(3-(methylcarbamoyl)-phenyl)piperidine-1-carboxamide, reference compound], the “decrease in protein synthesis, ES cells” value in assay [2] is recorded as “approximately 50%”. Moreover, the “teratoma formation at the side injected with pre-treated cells” value with hPSC-derived teratomas is “protective effect against teratoma formation”.
